Legend:
[1] = system: hyperhidrosis; settings: human, in vivo
[2] = system: gustatory sweating associated with diabetic autonomic neuropathy; settings: in vivo; cited from earlier work
[3] = system: hyperhidrosis; settings: in vivo; cited from earlier work
[4] = in vivo; cited from earlier work
[5] = system: hyperhidrosis; settings: in vivo; cited from earlier work; remark: listed apart in the source

Row | Molecule | perspiration associated with the hyperhidrosis [1] | unwanted perspiration at the location where the glycopyrrolate is applied [1] | gustatory sweating [2] | duration of reduction of the hyperhidrosis [3] | side effects [3] | side effects [4] | benefit in hyperhidrosis [5] | duration of effect [5]
1 | C[N+]1(C)CCC(OC(=O)C(O)(c2ccccc2)C2CCCC2)C1.[Br-] (centres unmarked) [glycopyrrolate] | reduction in the perspiration | reduces the unwanted perspiration | prevented the gustatory sweating | up to 4 weeks | abdominal discomfort | few side effects |  | 
2 | botulinum A neurotoxin [BOTOX] |  |  |  |  |  |  | statistically significant benefit | several months

From US6433003B1 (priority 1999, dated 2002)
